# Test results taken from patent publication US10316050B2, “PT (IV) complexes containing 4,4′-disubstituted-2,2′-bipyridyl and their use in cancer therapy” (THE BOARD OF REGENTS OF THE NEVADA SYSTEM OF HIGHER …, priority 2014, dated 2019).
# Columns and labels:
# DU145 cells = test: Annexin V/PI flow cytometry, DU145; assay type: cell-based, human; conditions: DU145, 10 μM Pt(IV)-4C or 2.5 μM Pt(IV)-5C for 1 hour, analyzed 12 hours post treatment
# Description: FIG. 11 is a series of graphs showing flow cytometry analysis of Annexin V/PI staining in A549 cells (top) and DU145 cells (bottom) treated with Pt(IV)-4C and Pt(IV)-5C. A549 cells were treated for 5 hours with control (left), 25 μM Pt(IV)-4C (center), or 10 μM Pt(IV)-5C (right), and analyzed 12 hours post treatment. DU145 cells were treated for 1 hour with control (left), 10 μM Pt(IV)-4C (center), or 2.5 μM Pt(IV)-5C (right) and analyzed 12 hours post treatment. Q1=PI+, represents necrotic cells; Q2=Annexin V/PI+, representing late apoptotic/necrotic cells; Q3=Annexin V+, representing early apoptotic cells; Q4=AnnexinV/PI−, representing live cells. Data are representative of three independent experiments.
# Cells (˜50 to 60% confluent in 60 mm dishes) were treated as indicated with the platinum compound. After treatment, the floating cells were collected, and both attached and floating cells were washed 2× with PBS. The cells were resuspended in fresh medium and incubated as indicated. The cells were harvested (both the floating and attached cells were collected), counted, and pelleted. The cells were then washed two times with 5 mL of Ca^2+ and Mg^2+ free PBS. The pellets were then washed in 2.0 mL of 1× Annexin-V Binding buffer (BD Bioscience, San Jose, CAS) and centrifuged at 500×g for 5 minutes. […] A quantitative measure of these event shifts was accomplished by gating. […]
# [1] = test system: phosphorylated H2AX (γH2AX) in A549 cells; test: Flow cytometry of phosphorylated H2AX, A549; assay type: cell-based, human; conditions: A549, 25 μM Pt(IV)-4C or 7.5 μM Pt(IV)-5C for 6 hours, analyzed 12 hours post treatment
# Description: FIG. 9 is a series of graphs plotting Pt(IV) complex-induced phosphorylation of H2AX in A549 cells (top panels) and DU145 cells (bottom panels). A549 cells were treated with control (left), 25 μM Pt(IV)-4C (center), or 7.5 μM Pt(IV)-5C (right) for 6 hours, and analyzed 12 hours post treatment. DU145 cells were treated for 2 hours with control (left), 10 μM Pt(IV)-4C (center), or 2.5 μM Pt(IV)-5C (right), and analyzed 7 hours post treatment. Data are representative of three independent experiments.
# Cells (200,000 to 250,000) were seeded in 60 mm dishes and incubated at 37° C. in a humidified, 5% CO2 atmosphere for 2 days to reach ˜50-60% confluence. The cells were treated with the platinum complexes as indicated, the floating cells were collected, and both attached and floating cells were washed 2× with PBS. The cells were resuspended in fresh medium and incubated as indicated. After incubation, both the floating and attached cells were collected and fixed by incubation in 4% formaldehyde for 10 minutes at room temperature. The fixed cells were pelleted and permeabilized by incubation in 500 μL of ice-cold methanol at 4° C. for 10 minutes. The samples were stored at −20° C. until analysis. For analysis, the cells were pelleted and washed 2× with 1% BSA in PBS. […] After washing 2× with 1% BSA, the cells were resuspended in PBS and analyzed on a Becton Dickinson FACS Calibur. […]
molecule,measurement,setting,value
"[Pt(IV)Cl2(OAc)2(4,4′-dibutoxy-2,2′-bipyridine)] [Pt(IV)-4C]",Annexin V/PI staining (apoptosis),DU145 cells,induce apoptosis
same,level of phosphorylated H2AX (γH2AX),[1],increase of γH2AX
"CC(=O)[O][Pt]([Cl])([Cl])[O]C(C)=O.CCCCCOc1ccnc(-c2cc(OCCCCC)ccn2)c1 [Pt(IV)-5C, [Pt(IV)Cl2(OAc)2(4,4′-dipentoxy-2,2′-bipyridine)]]",Annexin V/PI staining (apoptosis),DU145 cells,induce apoptosis
same,level of phosphorylated H2AX (γH2AX),[1],increase of γH2AX
